Results as given in PubChem BioAssay AID330 (DTP/NCI, 2004).
“And” between values parts separate entries of the source, which are not always exact repeats. Equal entries are not always repeated. Inconclusive results and toxic doses are left out.

Test system: P388 leukemia ip, CD2F1 mice, survival T/C
Assay: NCI In Vivo Anticancer Drug Screen. Data for tumor model P388 Leukemia (intraperitoneal) in CD2F1 (CDF1) mice
Details: endpoint: median survival time, higher = longer survival
Outline: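 Mice carrying the transplanted tumor received test compound or vehicle. Survival was recorded in each group, and the value is the treated-group measurement divided by that of the vehicle-treated control group.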

[1] = dose: 100.0 mg/kg/injection, schedule: Q04DX002 (ip), vehicle: saline
[2] = dose: 200.0 mg/kg/injection, schedule: Q04DX002 (ip), vehicle: saline
[3] = dose: 400.0 mg/kg/injection, schedule: Q04DX002 (ip), vehicle: saline
[4] = dose: 100.0 mg/kg/injection, schedule: Q04DX003 (ip), vehicle: saline
[5] = dose: 200.0 mg/kg/injection, schedule: Q04DX003 (ip), vehicle: saline
[6] = dose: 50.0 mg/kg/injection, schedule: Q01DX009 (ip), vehicle: saline with Tween-80
[7] = dose: 100.0 mg/kg/injection, schedule: Q01DX009 (ip), vehicle: saline with Tween-80
[8] = dose: 200.0 mg/kg/injection, schedule: Q01DX009 (ip), vehicle: saline with Tween-80
[9] = dose: 400.0 mg/kg/injection, schedule: Q01DX009 (ip), vehicle: saline with Tween-80

In the case of `COc1cccc2c1C(=O)c1c(O)c3c(c(O)c1C2=O)C[C@](O)(C(=O)CO)CC3OC1CC(N)C(OC2CCCCO2)C(C)O1` (some centres undefined), the T/C (dose: 0.78 mg/kg/injection, schedule: Q04DX003 (ip), vehicle: water) is reported as 122 % of control, the T/C (dose: 3.12 mg/kg/injection, schedule: Q04DX003 (ip), vehicle: water) is reported as 153 % of control and 240 % of control and the T/C (dose: 3.13 mg/kg/injection, schedule: Q04DX003 (ip), vehicle: water) is reported as 161 % of control. For the same compound, the T/C (dose: 3.75 mg/kg/injection, schedule: Q01DX005 (ip), vehicle: water) was 154 % of control, the T/C (dose: 6.25 mg/kg/injection, schedule: Q04DX003 (ip), vehicle: water) was 192 % of control and 200 % of control and 280 % of control and the T/C (dose: 7.5 mg/kg/injection, schedule: Q01DX005 (ip), vehicle: water) was 151 % of control. The T/C (dose: 12.5 mg/kg/injection, schedule: Q04DX003 (ip), vehicle: water) was 154 % of control and 416 % of control, the T/C (dose: 15.0 mg/kg/injection, schedule: Q01DX005 (ip), vehicle: water) was 196 % of control and the T/C (dose: 25.0 mg/kg/injection, schedule: Q04DX003 (ip), vehicle: water) was 91 % of control. The T/C (dose: 50.0 mg/kg/injection, schedule: Q04DX003 (ip), vehicle: water) was 87 % of control.

In the case of `CC(C)C1CCC2(C)OC2C1=O` (centres undefined), the T/C (dose: 25.0 mg/kg/injection, schedule: Q04DX002 (ip), vehicle: saline) is reported as 100 % of control, the T/C (dose: 50.0 mg/kg/injection, schedule: Q04DX002 (ip), vehicle: saline) is reported as 98 % of control and the T/C [1] is reported as 100 % of control and 101 % of control. For the same compound, the T/C [2] was 100 % of control and the T/C [3] was 112 % of control.

In the case of `CCOP(=O)(O)CC(=O)NC(CC(=O)O)C(=O)O` (centres undefined), the T/C (dose: 50.0 mg/kg/injection, schedule: Q01DX009 (ip), vehicle: Klucel (hydroxypropylcellulose) (HPC)) is reported as 100 % of control and 111 % of control, the T/C (dose: 100.0 mg/kg/injection, schedule: Q01DX009 (ip), vehicle: Klucel (hydroxypropylcellulose) (HPC)) is reported as 103 % of control and 108 % of control and the T/C (dose: 200.0 mg/kg/injection, schedule: Q01DX009 (ip), vehicle: Klucel (hydroxypropylcellulose) (HPC)) is reported as 106 % of control.

For `C=C1C(=O)OC2/C=C(\C)CC(O)/C=C(/CO)CC(OC(=O)/C(C)=C/C)C12` (centres undefined), the T/C (dose: 7.5 mg/kg/injection, schedule: Q01DX009 (ip), vehicle: saline + alcohol) was 111 % of control and the T/C (dose: 10.0 mg/kg/injection, schedule: Q01DX009 (ip), vehicle: saline + alcohol) was 121 % of control.

With `O=C(Cc1ccncc1)c1cccnc1` the T/C (dose: 12.5 mg/kg/injection, schedule: Q01DX001 (ip), vehicle: saline) was 101 % of control, the T/C (dose: 25.0 mg/kg/injection, schedule: Q01DX001 (ip), vehicle: saline) was 102 % of control and the T/C (dose: 50.0 mg/kg/injection, schedule: Q01DX001 (ip), vehicle: saline) was 107 % of control. For the same compound, the T/C [1] was 98 % of control, the T/C [2] was 99 % of control and the T/C [3] was 105 % of control.

For `NC(=Nc1ccc(Cl)cc1)N/N=C/c1ccc2c(c1)Cc1ccccc1-2`, the T/C (dose: 25.0 mg/kg/injection, schedule: Q04DX002 (ip), vehicle: saline with Tween-80) was 106 % of control, the T/C (dose: 50.0 mg/kg/injection, schedule: Q04DX002 (ip), vehicle: saline with Tween-80) was 106 % of control and the T/C (dose: 100.0 mg/kg/injection, schedule: Q04DX002 (ip), vehicle: saline with Tween-80) was 107 % of control.

With `O=C(N/N=C/c1cccc(O)c1O)N/N=C/c1cccc(O)c1O` the T/C (dose: 25.0 mg/kg/injection, schedule: Q01DX009 (ip), vehicle: distilled water + Tween-80) was 104 % of control and 109 % of control, the T/C (dose: 50.0 mg/kg/injection, schedule: Q01DX009 (ip), vehicle: distilled water + Tween-80) was 109 % of control (2×) and 116 % of control and the T/C (dose: 100.0 mg/kg/injection, schedule: Q01DX009 (ip), vehicle: distilled water + Tween-80) was 118 % of control and 119 % of control. The T/C (dose: 200.0 mg/kg/injection, schedule: Q01DX009 (ip), vehicle: distilled water + Tween-80) was 118 % of control and 95 % of control and the T/C (dose: 400.0 mg/kg/injection, schedule: Q01DX009 (ip), vehicle: distilled water + Tween-80) was 91 % of control.

With `COc1cccc2c1C(=O)c1c(O)c3c(c(O)c1C2=O)C[C@@](O)(/C(C)=N/N1CCCCC1)C[C@@H]3OC1CC(N)C(O)C(C)O1` (some centres undefined) the T/C (dose: 1.25 mg/kg/injection, schedule: Q01DX009 (ip), vehicle: saline) was 156 % of control, the T/C (dose: 2.5 mg/kg/injection, schedule: Q01DX009 (ip), vehicle: saline) was 160 % of control and the T/C (dose: 5.0 mg/kg/injection, schedule: Q01DX009 (ip), vehicle: saline) was 101 % of control.

In the case of `CN1CCC/C1=C/C(=O)c1ccc(Cl)cc1`, the T/C [4] is reported as 102 % of control and 98 % of control, the T/C [5] is reported as 111 % of control and 120 % of control and the T/C (dose: 400.0 mg/kg/injection, schedule: Q04DX003 (ip), vehicle: saline) is reported as 92 % of control.

In the case of `CCOP(=O)(OCC)C(C)OC` (centres undefined), the T/C (dose: 50.0 mg/kg/injection, schedule: Q01DX009 (ip), vehicle: saline) is reported as 100 % of control, the T/C (dose: 100.0 mg/kg/injection, schedule: Q01DX009 (ip), vehicle: saline) is reported as 100 % of control and the T/C (dose: 200.0 mg/kg/injection, schedule: Q01DX009 (ip), vehicle: saline) is reported as 106 % of control. The T/C (dose: 400.0 mg/kg/injection, schedule: Q01DX009 (ip), vehicle: saline) was 100 % of control.

In the case of `CN(c1ccccc1)C1CS(=O)(=O)OC2=C1CCCC2` (centres undefined), the T/C [6] is reported as 98 % of control, the T/C [7] is reported as 102 % of control and the T/C [8] is reported as 104 % of control.

In the case of `[NH-]CC[N-]CCO.[NH-]CC[N-]CCO.[NH-]CC[N-]CCO.[Ni]`, the T/C (dose: 6.25 mg/kg/injection, schedule: Q01DX005 (ip), vehicle: saline) is reported as 93 % of control, the T/C (dose: 12.5 mg/kg/injection, schedule: Q01DX005 (ip), vehicle: saline) is reported as 98 % of control and the T/C (dose: 25.0 mg/kg/injection, schedule: Q01DX005 (ip), vehicle: saline) is reported as 107 % of control.

In the case of `Nc1cccnc1`, the T/C (dose: 5.0 mg/kg/injection, schedule: Q04DX003 (ip), vehicle: saline) is reported as 100 % of control, the T/C (dose: 10.0 mg/kg/injection, schedule: Q04DX003 (ip), vehicle: saline) is reported as 100 % of control and the T/C (dose: 20.0 mg/kg/injection, schedule: Q04DX003 (ip), vehicle: saline) is reported as 100 % of control.

`O=C(O)CSCSCC(=O)O` was tested, and the T/C [4] was 100 % of control and the T/C [5] was 104 % of control.

`CCC[CH2][Sn]1([CH2]CCC)[S]CC[N]1S(=O)(=O)c1ccc(C)cc1` was tested, and the T/C (dose: 1.0 mg/kg/injection, schedule: Q01DX009 (ip), vehicle: gum acacia) was 114 % of control, the T/C (dose: 1.5 mg/kg/injection, schedule: Q01DX009 (ip), vehicle: gum acacia) was 106 % of control and the T/C (dose: 2.25 mg/kg/injection, schedule: Q01DX009 (ip), vehicle: gum acacia) was 120 % of control.

With `CCCCCCCCN(/N=C/c1c2c(O)c3c(O)c(C)c4c(c3c1O)C(=O)C(C)(O/C=C/C(OC)C(C)C(OC(C)=O)C(C)C(O)C(C)C(O)C(C)/C=C/C=C(C)C(=O)N2)O4)C1OC(COC(=O)c2ccccc2)C(OC(=O)c2ccccc2)C1OC(=O)c1ccccc1` (centres undefined) the T/C [6] was 102 % of control, the T/C [7] was 102 % of control and the T/C [8] was 107 % of control.

For `C[N+]1=C(/C=C/Nc2ccc3c4c(cccc24)-c2ccccc2-3)C(C)(C)c2ccccc21`, the T/C [6] was 108 % of control, the T/C [7] was 105 % of control and the T/C [8] was 118 % of control.

With `CCSC(=O)N1c2ccc(OC)cc2C=CC1C#N` (centres undefined) the T/C (dose: 44.0 mg/kg/injection, schedule: Q01DX009 (ip), vehicle: saline with Tween-80) was 119 % of control, the T/C [6] was 105 % of control and the T/C (dose: 66.0 mg/kg/injection, schedule: Q01DX009 (ip), vehicle: saline with Tween-80) was 119 % of control. For the same compound, the T/C (dose: 100.0 mg/kg/injection, schedule: Q04DX003 (ip), vehicle: saline with Tween-80) was 109 % of control, the T/C (dose: 150.0 mg/kg/injection, schedule: Q01DX009 (ip), vehicle: saline with Tween-80) was 160 % of control and the T/C [8] was 108 % of control. The T/C (dose: 200.0 mg/kg/injection, schedule: Q04DX003 (ip), vehicle: saline with Tween-80) was 118 % of control, the T/C (dose: 266.0 mg/kg/injection, schedule: Q04DX003 (ip), vehicle: saline with Tween-80) was 124 % of control and the T/C [9] was 118 % of control. For the same compound, the T/C (dose: 800.0 mg/kg/injection, schedule: Q01DX009 (ip), vehicle: saline with Tween-80) was 96 % of control.

With `CCCCCCC1(/C=C/c2ccc(Cl)cc2Cl)OCCCO1` the T/C (dose: 50.0 mg/kg/injection, schedule: Q01DX009 (ip), vehicle: saline + alcohol) was 94 % of control, the T/C (dose: 100.0 mg/kg/injection, schedule: Q01DX009 (ip), vehicle: saline + alcohol) was 97 % of control and the T/C (dose: 200.0 mg/kg/injection, schedule: Q01DX009 (ip), vehicle: saline + alcohol) was 97 % of control.

`O=c1[nH][nH]c(=S)n1-c1ccccc1` was tested, and the T/C [6] was 98 % of control, the T/C [7] was 101 % of control and the T/C [8] was 94 % of control. For the same compound, the T/C [9] was 88 % of control.

In the case of `CC1(C)CC(NCCN)=CC(=S)N1`, the T/C (dose: 50.0 mg/kg/injection, schedule: Q01DX005 (ip), vehicle: Klucel (hydroxypropylcellulose) (HPC)) is reported as 98 % of control, the T/C (dose: 100.0 mg/kg/injection, schedule: Q01DX005 (ip), vehicle: Klucel (hydroxypropylcellulose) (HPC)) is reported as 98 % of control and the T/C (dose: 200.0 mg/kg/injection, schedule: Q01DX005 (ip), vehicle: Klucel (hydroxypropylcellulose) (HPC)) is reported as 104 % of control.
